Data as given in paper PMC9775191, “A Subset Screen of the Compounds Australia Scaffold Library Identifies 7-Acylaminodibenzoxazepinones as Potent and Selective Hits for Anti-Giardia Drug Discovery” (Biomedicines, 2022).

Test system: G. duodenalis BRIS/91/HEPU/1279
Experiment: Primary Giardia screen at 10 µM (live-cell imaging, automated counting)
Assay type: cell-based, Giardia duodenalis
Details: for % Inhibition n=1 48h / % Inhibition n=1 24h: first singlicate assay; for % Inhibition n=2 24h / % Inhibition n=2 48h: re-assessment
Procedure, shortened: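 Compounds were tested once each at 10 μM final (0.2% DMSO) in culture medium under 3% O2, 5% CO2 in N2. Growth was read at 24 and 48 h by live-cell imaging with automated counting, and inhibition expressed as percent growth versus 0.2% DMSO vehicle after media-only background subtraction.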

CC12CC(c3ccccc3O1)N(C(=O)c1cccc(F)c1)C(=O)N2c1ccccc1 (stereo not shown) [SN00784677]
% Inhibition n=1 48h: 0.0%

CCC1Cn2c(C(=O)NCCN(C)C3CCCCC3)cc3cccc(c32)O1 (stereo not shown) [SN00788158]
Average % Inhibition 24h: 13.9%
% Inhibition n=1 24h: 11.2%
% Inhibition n=2 24h: 16.5%
Average % Inhibition 48h: 53.7%
% Inhibition n=1 48h: 54.5%
% Inhibition n=2 48h: 52.9%

CCc1ccc(CNC(=O)c2c[nH]nc2-c2ccc(Cl)cc2)cc1 [SN00791699]
% Inhibition n=1 48h: 7.3%

CSCCC(NS(=O)(=O)c1ccc(C)cc1)C(=O)Nc1nc(C)c(-c2ccccn2)s1 (stereo not shown) [SN00779415]
% Inhibition n=1 48h: 0.0%

COCCN1C(=O)CCC(C(=O)O)C1c1cnn(-c2ccccc2)c1 (stereo not shown) [SN00783261]
% Inhibition n=1 48h: 0.0%

Cc1ccc(COCc2nn(C)c3c2CN(S(=O)(=O)c2ccc(F)c(C)c2)CC3)cc1 [SN00796451]
% Inhibition n=1 48h: 2.1%

c1ccc(-c2cn3nc(-c4ccccc4)n4c3c2CCCC4)cc1 [SN00776412]
% Inhibition n=1 48h: 0.0%

CCCNC(=O)c1cnn2c(C(F)F)cc(-c3ccc(C)cc3)nc12 [SN00783826]
% Inhibition n=1 48h: 40.8%

Cc1cc(C)n(Cc2ccc(C(=O)N3CCN(Cc4n[nH]c(C)n4)CC3)cc2)n1 [SN00782137]
% Inhibition n=1 48h: 1.5%

O=C(NCc1ccccc1Cl)c1cc2n(n1)CCCN(Cc1ccc(F)cc1)C2=O [SN00792328]
% Inhibition n=1 48h: 0.0%

Cc1cc(C)c(S(=O)(=O)N2CCc3[nH]cnc3C2)cc1C [SN00798786]
% Inhibition n=1 48h: 0.0%

COc1ccc(-c2cc(N3CCC(NC(=O)Cc4ccccc4)CC3)[nH]n2)cc1 [SN00800379]
% Inhibition n=1 48h: 0.0%

CCc1ccc(C2=Nc3ncnn3/C2=N/Cc2ccc(F)cc2)cc1 [SN00793051]
% Inhibition n=1 48h: 1.3%

CCC1c2ccsc2CCN1C(=O)C1CCN(S(=O)(=O)c2ccc(Cl)c([N+](=O)[O-])c2)CC1 (stereo not shown) [SN00771236]
% Inhibition n=1 48h: 27.8%

O=C(CCN1CCC(c2n[nH]c(C3CC3)n2)CC1)Nc1ccccc1 [SN00772586]
% Inhibition n=1 48h: 28.6%

Cc1cc(C)c2c(=O)n(CC(=O)Nc3ccc(Br)cc3)c(=O)n(C)c2n1 [SN00794110]
% Inhibition n=1 48h: 0.0%

CC(=O)N1CCc2cc(C)c(S(=O)(=O)NC3CC3)cc21 [SN00798831]
% Inhibition n=1 48h: 4.3%

Fc1ccc(C2=NC(c3cccs3)=Nc3cc(Cl)ccc3N2)cc1 [SN00785914]
% Inhibition n=1 48h: 0.0%

Cc1cc2nc(Sc3nnnn3CC3CCCO3)c3ccccc3n2n1 (stereo not shown) [SN00771233]
% Inhibition n=1 48h: 16.5%

O=C(CCc1cnn(-c2ccccc2)c1)Nc1cc(C2CCOCC2)[nH]n1 [SN00782289]
% Inhibition n=1 48h: 8.0%

CN(C)C(=O)c1ccc(OC2CCN(Cc3ccccn3)C2)nc1 (stereo not shown) [SN00800120]
% Inhibition n=1 48h: 6.6%

COCC(=O)Nc1ccc(NC(=O)c2cc3nc(C)ccc3o2)cc1 [SN00781689]
% Inhibition n=1 48h: 14.1%

COc1cccc(-c2noc(C3CCCCN3C(=O)Nc3ccc(Cl)cc3Cl)n2)c1 (stereo not shown) [SN00802548]
% Inhibition n=1 48h: 5.7%

COc1ccccc1OC(C)C(=O)N1N=C2CCCCC2C1(O)C(F)(F)F (stereo not shown) [SN00786959]
% Inhibition n=1 48h: 13.1%

Cc1cccc(-c2noc(C3CCCN3S(=O)(=O)c3cc(C)c(C)cc3C)n2)c1 (stereo not shown) [SN00797488]
% Inhibition n=1 48h: 0.0%

Cn1cc2c(n1)c(=O)n(Cc1ccccc1)c(=O)n2CC(=O)Nc1cccc(F)c1 [SN00796169]
Average % Inhibition 24h: 30.6%
% Inhibition n=1 24h: 37.8%
% Inhibition n=2 24h: 23.4%
Average % Inhibition 48h: 62.8%
% Inhibition n=1 48h: 46.9%
% Inhibition n=2 48h: 78.6%

COc1cccc(C2(C)NC(=O)N(Cc3csc(-c4ccccc4)n3)C2=O)c1 (stereo not shown) [SN00782700]
% Inhibition n=1 48h: 0.0%

CCOC(=O)c1csc(-n2nc(-c3cccc(OC(C)=O)c3)cc2C(F)(F)F)n1 [SN00789527]
% Inhibition n=1 48h: 21.7%

Cc1ccc(-c2cc3nc(C)cc(N4CCC(C(=O)NCCCN5CCCC5)CC4)n3n2)cc1 [SN00795048]
% Inhibition n=1 48h: 16.1%

Cc1sc(=O)n(CCC(=O)N2CCC(C)CC2c2ccco2)c1C (stereo not shown) [SN00783298]
% Inhibition n=1 48h: 0.0%
